Laboratory results reported in ChEMBL document CHEMBL5226302, “Small-Molecule Inhibitors Targeting the Canonical WNT Signaling Pathway for the Treatment of Cancer” (J Med Chem, 2021).
Blank lines part the entries; values can stand above or below the molecule they belong to.

Legend:
COLO 320 = test: Antiproliferative activity against human COLO 320 assessed as growth inhibition measured after 24 hrs; assay type: functional
[1] = Binding affinity to Wnt/beta catenin (unknown origin) assessed as inhibition constant; set-up: species or system Homo sapiens
HT-29 = test: Antiproliferative activity against human HT-29 cells assessed as reduction in cell viability; assay type: functional, cell-based
HCT-116 = test: Antiproliferative activity against human HCT-116 cells assessed as reduction in cell viability; assay type: functional, cell-based
[2] = Antiproliferative activity against human SW403 cells assessed as reduction in cell viability; assay type: functional, cell-based; conditions: SW-403
[3] = biological target: Catenin beta-1/Transcription factor 7 (Homo sapiens, UniProt P35222+P36402); test: Inhibition of beta catenin/TCF (unknown origin) by immunoprecipitation method; assay type: protein assay
LNCaP C4-2B = test: Antiproliferative activity against human LNCaP C4-2B cells assessed as inhibition of cell growth by Celltiter-Glo assay; assay type: functional, cell-based
Catenin beta-1/BCL9L = biological target: T1, Catenin beta-1/BCL9L (Homo sapiens, UniProt P35222+Q86UU0); test: Binding affinity to beta catenin (unknown origin) to BCL assessed as inhibition constant by alpha screening assay; assay type: protein-complex assay
T1 sequence (P35222 whole entry): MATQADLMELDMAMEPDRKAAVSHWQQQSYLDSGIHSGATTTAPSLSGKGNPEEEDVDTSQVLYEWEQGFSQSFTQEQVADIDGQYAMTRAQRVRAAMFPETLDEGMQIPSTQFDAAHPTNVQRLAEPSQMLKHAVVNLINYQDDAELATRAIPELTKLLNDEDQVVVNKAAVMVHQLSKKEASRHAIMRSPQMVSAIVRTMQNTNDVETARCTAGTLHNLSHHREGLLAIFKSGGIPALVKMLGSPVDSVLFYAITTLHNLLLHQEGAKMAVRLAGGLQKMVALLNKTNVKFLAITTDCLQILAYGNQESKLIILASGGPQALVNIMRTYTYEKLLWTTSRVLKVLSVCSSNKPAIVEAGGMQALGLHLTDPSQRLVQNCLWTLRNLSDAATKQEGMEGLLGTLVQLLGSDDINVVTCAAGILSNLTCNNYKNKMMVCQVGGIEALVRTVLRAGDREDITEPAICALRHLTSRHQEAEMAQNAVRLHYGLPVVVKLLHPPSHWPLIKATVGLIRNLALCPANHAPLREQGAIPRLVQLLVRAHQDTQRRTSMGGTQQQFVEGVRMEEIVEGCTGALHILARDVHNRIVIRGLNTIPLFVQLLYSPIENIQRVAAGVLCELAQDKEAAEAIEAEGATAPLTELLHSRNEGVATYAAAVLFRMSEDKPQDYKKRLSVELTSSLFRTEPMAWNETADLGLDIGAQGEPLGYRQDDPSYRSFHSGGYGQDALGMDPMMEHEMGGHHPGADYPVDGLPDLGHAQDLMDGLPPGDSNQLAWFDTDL
T1 sequence (Q86UU0 whole entry): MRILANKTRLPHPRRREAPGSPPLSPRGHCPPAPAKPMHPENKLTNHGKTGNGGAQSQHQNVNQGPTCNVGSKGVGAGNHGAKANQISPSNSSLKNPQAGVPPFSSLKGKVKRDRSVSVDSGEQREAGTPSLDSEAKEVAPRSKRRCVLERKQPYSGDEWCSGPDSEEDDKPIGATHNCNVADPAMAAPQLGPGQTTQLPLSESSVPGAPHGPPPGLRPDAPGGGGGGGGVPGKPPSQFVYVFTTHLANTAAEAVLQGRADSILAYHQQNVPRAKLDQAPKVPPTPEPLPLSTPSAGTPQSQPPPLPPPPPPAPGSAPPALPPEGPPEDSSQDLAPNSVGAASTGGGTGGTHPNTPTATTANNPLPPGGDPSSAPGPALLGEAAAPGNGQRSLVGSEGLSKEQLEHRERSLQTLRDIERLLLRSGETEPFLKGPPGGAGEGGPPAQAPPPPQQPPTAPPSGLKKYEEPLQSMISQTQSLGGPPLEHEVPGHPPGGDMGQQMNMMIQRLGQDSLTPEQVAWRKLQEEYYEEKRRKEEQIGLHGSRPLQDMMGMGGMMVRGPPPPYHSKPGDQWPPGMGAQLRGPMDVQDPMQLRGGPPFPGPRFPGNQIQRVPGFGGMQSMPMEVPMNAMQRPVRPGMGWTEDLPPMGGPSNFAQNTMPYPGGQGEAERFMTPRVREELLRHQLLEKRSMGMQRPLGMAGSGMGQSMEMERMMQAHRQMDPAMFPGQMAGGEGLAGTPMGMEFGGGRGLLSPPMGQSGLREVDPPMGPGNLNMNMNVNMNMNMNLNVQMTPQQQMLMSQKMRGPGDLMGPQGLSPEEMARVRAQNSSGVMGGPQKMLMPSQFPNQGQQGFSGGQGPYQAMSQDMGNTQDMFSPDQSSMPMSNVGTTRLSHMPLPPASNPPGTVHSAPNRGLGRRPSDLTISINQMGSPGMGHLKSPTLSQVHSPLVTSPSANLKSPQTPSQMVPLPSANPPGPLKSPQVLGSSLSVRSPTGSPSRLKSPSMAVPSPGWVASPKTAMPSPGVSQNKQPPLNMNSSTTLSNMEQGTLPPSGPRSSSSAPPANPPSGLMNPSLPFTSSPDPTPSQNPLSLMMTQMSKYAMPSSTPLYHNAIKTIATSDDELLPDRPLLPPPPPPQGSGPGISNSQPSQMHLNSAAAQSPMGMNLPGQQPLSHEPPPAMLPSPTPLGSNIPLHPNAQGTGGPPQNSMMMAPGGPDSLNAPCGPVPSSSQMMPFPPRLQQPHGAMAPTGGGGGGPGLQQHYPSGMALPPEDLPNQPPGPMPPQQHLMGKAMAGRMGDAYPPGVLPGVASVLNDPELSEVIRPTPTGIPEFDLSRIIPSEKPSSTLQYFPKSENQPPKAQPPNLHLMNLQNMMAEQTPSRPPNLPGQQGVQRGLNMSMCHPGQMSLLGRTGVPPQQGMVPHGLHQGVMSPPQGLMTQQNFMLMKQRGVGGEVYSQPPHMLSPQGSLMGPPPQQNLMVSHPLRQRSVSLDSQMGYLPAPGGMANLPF

Catenin beta-1 [4] = biological target: T2, Catenin beta-1 (Homo sapiens, UniProt P35222); test: Binding affinity to human beta catenin assessed as dissociation constant
T2 sequence (P35222 whole entry): T1 sequence (P35222 whole entry)

[5] = Inhibition of beta catenin/APC (unknown origin); set-up: species or system Homo sapiens
[6] = Inhibition of Wnt2 signalling in human SW480 cells assessed as reduction in cyclin D1 expression […] measured after 24 hrs by western blot analysis; assay type: cell-based; conditions: SW480, 24 h
Catenin beta-1 [7] = biological target: T2, Catenin beta-1; test: Binding affinity to beta catenin (unknown origin) assessed as dissociation constant by VP-ITC method
Catenin beta-1 [8] = biological target: Catenin beta-1 (Homo sapiens, UniProt P35222); test: Binding affinity to human beta catenin double mutant assessed as dissociation constant by alpha assay

Chain of Catenin beta-1/Transcription factor 7 (P36402 whole entry, one chain of several): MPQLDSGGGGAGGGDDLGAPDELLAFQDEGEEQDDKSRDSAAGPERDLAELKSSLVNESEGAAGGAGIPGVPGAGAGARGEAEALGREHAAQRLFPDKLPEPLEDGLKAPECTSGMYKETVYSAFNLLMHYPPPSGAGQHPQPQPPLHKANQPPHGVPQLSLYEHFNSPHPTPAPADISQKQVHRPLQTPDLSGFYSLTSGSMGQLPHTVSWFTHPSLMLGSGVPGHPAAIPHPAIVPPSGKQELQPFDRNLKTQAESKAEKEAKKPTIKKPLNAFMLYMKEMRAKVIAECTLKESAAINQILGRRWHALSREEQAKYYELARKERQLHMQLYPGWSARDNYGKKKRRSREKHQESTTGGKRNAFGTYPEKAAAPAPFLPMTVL

SMILES: C[C@@H]1CN(c2cc(F)c3c(c2)N(C)C(=O)C32CCN(c3nc4c(c(=O)[nH]3)CCCN4C)CC2)C[C@H](C)O1
GI50 (COLO 320): 230 nM

SMILES: COc1ccc(-c2c(C(=O)OCCOCCOCCOCCN)c3c4ccccc4oc(=O)c3n2C)cc1
Ki [1]: 1200 nM

SMILES: CN(c1ccc(C(F)(F)F)cc1)S(=O)(=O)c1ccc(C(=O)Nc2nc(-c3ccccn3)cs2)cc1
EC50 (HT-29): 132 nM
EC50 (HCT-116): 123 nM
EC50 [2]: 123 nM

SMILES: O=C(c1cc(F)cc(N2CCNCC2)c1)N1CCN(C(=O)c2ccc(O[C@@H]3CCNC3)c(C3CCCCC3)c2)CC1
Ki (Catenin beta-1/BCL9L): 5200 nM

SMILES: O=C(Nc1ccc(-c2ccc(F)cc2)c(O[C@H]2CCNC2)c1)c1ccc(O[C@H]2CCNC2)c(-c2ccc(F)c(F)c2)c1
Kd (Catenin beta-1 [8]): 97 nM

The remaining lines, values ahead:

IC50 [3]: 10000 nM
IC50 (LNCaP C4-2B): 195 nM
SMILES: COc1ccc([C@@H](C)N2CC(=O)N[C@H](C)C(=O)CN(CCc3ccccc3Oc3ccccc3)CC(=O)N(c3cc(OC)cc(OC)c3)CC(=O)N(CCCOC(C)C)CC(=O)N([C@H](C)c3ccc(OC)cc3)CC2=O)cc1

Kd (Catenin beta-1 [4]): 160 nM
SMILES: CC(=O)N[C@@H](CCC(=O)O)CN(CC(=O)N[C@@H](CCCNC(=N)N)CN(CC(=O)N[C@@H](CCCNC(=N)N)CN(CC(=O)NC(CC(C)C)CN(CC(=O)N[C@H](CN(CC(=O)N[C@@H](CC(C)C)CN(CC(=O)N[C@@H](CCCNC(=N)N)CN(CC(=O)N[C@@H](C)CN(CC(=O)N[C@@H](CC(C)C)CN(CC(=O)N[C@@H](CC(C)C)CN(CC(N)=O)SCc1ccccc1)S(=O)(=O)CC(C)C)S(C)(=O)=O)S(=O)(=O)CC(C)C)S(=O)(=O)CCN)S(=O)(=O)CC(C)C)C(C)O)S(=O)(=O)CCN)S(C)(=O)=O)S(C)(=O)=O)S(=O)(=O)CCN (stereo partly drawn)

IC50 [5]: 28700 nM
IC50 [6]: 10800 nM
SMILES: CCOC(=O)CC[C@H](NC(=O)[C@H](CC(=O)OCC)NC(=O)[C@H](Cc1ccc2ccccc2c1)NC(=O)Cc1cc2cc(Cl)ccc2[nH]1)C(=O)OC

Kd (Catenin beta-1 [7]): 60 nM
SMILES: CC[C@H](C)[C@H]1NC(=O)[C@](C)(NC(=O)[C@H](CCC(N)=O)NC(=O)[C@@H]2CCCN2C(=O)[C@H](CC(N)=O)NC(=O)[C@H](CCC(=O)O)NC(=O)CCNC(=S)Nc2ccc3c(c2)C(=O)OC32c3ccc(O)cc3Oc3cc(O)ccc32)CCC/C=C/CCC[C@](C)(C(=O)N[C@@H](Cc2cnc[nH]2)C(=O)N[C@H](C(=O)N[C@@H](CCC(N)=O)C(=O)N[C@@H](CCCNC(=N)N)C(=O)N[C@H](C(=O)N[C@@H](CCSC)C(N)=O)C(C)C)C(C)C)NC(=O)[C@H](CC(=O)O)NC(=O)[C@H](C(C)(C)C)NC1=O
